In patent publication US20040120954A1, “Regulation of mt1-mmp activity” (priority 2000, published 2004):

How the values were obtained:
MT1-MMP [1] = assay: In situ gelatin degrading assay (DQ gelatin or Alexa488-conjugated gelatin); format: cell-based, human; settings: DQ gelatin; CHO-K1 (FIG. 13) or COS1 cells (FIG. 22)
Method: Two different in situ gelatin degrading assays were performed. One used DQ™ gelatin (Molecular Probes, Inc., OR, USA). DQ gelatin is a fluorescence-quenched gelatin substrate, and will fluoresce upon proteolytic cleavage. Glass cover slips were coated with 5% DQ™ gelatin in a 10 mg/ml unlabeled gelatin solution, and dried. Transfected cells were cultured on the cover slip in a humidified chamber for 16 hrs. The cells were then fixed with 3% para-formaldehyde and the degraded areas were visualized as those showing fluorescence.
The other assay used Alexa488-conjugated gelatin made with an Alexa488-labeling kit (Molecular Probes). The bottom surfaces of 4-well chamber slides (Nunc) were coated with Alexa488-conjugated gelatin according to the method of Yana, I. and Weiss, S. J., Mol. Biol. Cell, 11, 2387-2401, 2000. Transfected COS1 cells were cultured in the chamber slides for 16 hrs in a humidified culture incubator. The cells were then fixed with 3% para-formaldehyde in PBS, and the degraded area was analyzed under a fluorescence microscope. The degraded area was visualized as a dark, non-fluorescent area. Fluorescence images were analyzed using confocal microscopy (BioRad).
(§1) Next, to determine if MT1PEX-F affects the catalytic activity of MT1-MMP on the cell surface or not, tests for gelatin degrading activity and binding capacity to TIMP-2 were conducted using cells transfected in the same incubator. As shown in FIGS. 12 through 14, CHO-K1 cells were transfected with an expression vector for MT1-F, MT1-F/MT1PEX-F or MT1Cat-F, or a vector alone (Mock). The cells were then treated with trypsin, and separately seeded to: DQ™ gelatin-coated cover slips for testing the proteolytic activity (FIG. 13); and 24-well plates for TIMP-2 binding assay (FIG. 12) and for the activation of proMMP-2 (FIG. 14). Transfected cells on the DQ™ gelatin-coated cover slip as shown in FIG. 13 were incubated in a medium at 37° C. for 18 hrs, and the generated fluorescence was analyzed using confocal microscopy. Transfected cells on the 24-well plate as shown in FIG. 12 were incubated with 25 nM ^125I-labeled TIMP-2 in the presence or absence of BB-94 (50 μM) at 0° C. for 1 hr. MT1-MMP specific binding was calculated by subtracting the datum obtained in the presence of BB-94 (50 μM) from each datum derived from the corresponding experiments. Identically transfected cells on the 24-well plate as shown in FIG. 14 were subjected to the reaction with purified proMMP-2 in a serum-free medium at 37° C. for 18 hrs. The cells and culture supernatants were respectively subjected to Western blotting analysis using a monoclonal anti-FLAG M2 antibody, and gelatin zymography analysis. […] DQ™ gelatin is a fluorescence-quenched gelatin, which fluoresces upon proteolytic cleavage. […]

MT1-F = target: T1, MT1-F (Homo sapiens, UniProt P50281); assay: Co-immunoprecipitation with MT1-F using anti-FLAG M2 beads (COS1 cells); format: binding; settings: co-expressed in COS1 cells (FIG. 18)
T1 construct: expressed in transfected cells
Method: Transfected COS1 cells were lysed in a RIPA buffer (50 mM Tris-HCl, pH 7.5; 150 mM NaCl; 1% Triton-X100; 1% sodium deoxycolate; 0.1% SDS; 1 mM EDTA; 1 mM PMSF; 10 μM E-64; 0.02% NaN3) at room temperature for 1 hr. Cell lysates were centrifuged at 15,000 rpm in Eppendorf tubes, and the supernatant was reacted with anti-FLAG M2 antibody-conjugated beads (Sigma) at 4° C. for 1 hr. The beads were washed three times with a RIPA buffer and once with Tris-buffered saline (pH 7.5) (TBS). Bound proteins were eluted by the FLAG peptide ([…] 200 μg/ml) (Sigma) in TBS, and subjected to Western blot analysis using a monoclonal mouse anti-FLAG epitope M2 antibody (Sigma), a monoclonal mouse anti-c-Myc antibody (Ab-1) (Oncogene, MA, USA; 1 μg/ml), a rabbit anti-(human MT1Cat) antibody (1:2000), or a monoclonal mouse anti-human MT1PEX antibody (222-1D8) (0.5 μg/ml).
The activation of proMMP-2 by MT1-MMP on the cell surface requires the ternary complex formation of proMMP-2, TIMP-2 and MT1-MMP, and also the presence of TIMP-2-free MT1-MMP near the ternary complex. If TIMP-2-free MT1-MMP and the ternary complex are far apart, the activation should not occur. We thus hypothesized that MT1-MMP would form a homophilic complex on the cell surface to arrange the effective activation complex for MMP-2. […]

MT1-MMP [2] = assay: Activation of proMMP-2 by MT1-MMP on the cell surface of transfected cells (gelatin zymography); format: cell-based, human; settings: transfected COS1 cells, exogenous purified proMMP-2 (FIGS. 2, 20)
Method: Gelatin zymography was conducted using an SDS-polyacrylamide gel (PAGE) containing gelatin (0.8 mg/ml) (Itoh, Y. et al., J. Biol. Chem., 273: 24360-24367, 1998). The samples were mixed with a SDS-PAGE loading buffer without a reducing agent and subjected to electrophoretic analysis at room temperature. Enzyme activity was visualized as a negative staining area with Coomassie Brilliant Blue R-250.
The expression construct for FLAG epitope ([…]-tagged MT1-MMP (MT1-F) described in Itoh, Y. et al., J. Biol. Chem., 274: 34260-34266, 1999 was used as a template to generate cDNA for MT1Cat-F (A Ile^318-Gly^535) by the PCR extension method of Ho et al., (Ho, S. N. et al., Gene, 77: 51-59, 1989). The cDNA was subcloned into pSG5 (Stratagene, CA, USA). The PCR-generated fragments were confirmed by DNA sequencing. COS1 cells were transfected with the expression vector for MT1-MMP mutant; MT1-F or MT1Cat-F, or a vector alone (Mock). Expression vectors for each protein were transfected using FuGENE6™ (Roche Molecular Biochemicals) according to the manufacturer's instructions. COS1 cells were seeded in 6-well plates at 1.5×10^5/well at 16 hrs before the transfection was performed. The COS1 cells were maintained in a HAM F-12 medium or DMEM containing 10% fetal bovine serum in a humidified incubator at 37° C. At 48 hrs after the transfection, the cells were collected for use in the experiments. The cells were incubated in the presence of purified proMMP-2 in a serum-free medium (0.25 μg/ml) at 37° C. for 18 hrs. Cell lysates were tested for the expression of the mutants, while culture supernatants were tested for the activation of proMMP-2.
To investigate roles of dimer formation upon the activation of proMMP-2, MT1-F was introduced into COS1 cells together with MT1PEX-F. The co-introduced cells were reacted with exogenously added proMMP-2. Thus, COS1 cells were co-transfected with the MT1-F and MT1PEX-F at indicated DNA amount ratios. Next, purified proMMP-2 (0.25 μg/ml) in a serum-free medium was reacted with the resulting cells at 37° C. for 18 hrs. MMP-2 in the culture supernatant was analyzed by gelatin zymography, and the cell lysates were subjected to Western blotting analysis using a monoclonal anti-FLAG M2 antibody.
as §1, with “experiments.” for “experiments. Identically transfected cells on the 24-well plate as shown in FIG. 14 were subjected to the reaction with purified proMMP-2 in a serum-free medium at 37° C. for 18 hrs. The cells and culture supernatants were respectively subjected to Western blotting analysis using a monoclonal anti-FLAG M2 antibody, and gelatin zymography analysis.”

Question: For “MT1Cat: MT1-MMP lacking the PEX domain (untagged)”, which “gelatin degrading (proteolytic) activity of cells expressing the mutant” value (MT1-MMP [1]) is on record?
Answer: retains its proteolytic activity

Question: What about the “co-immunoprecipitation with MT1-F” value (MT1-F) of the same substance?
Answer: not MT1Cat was co-immunoprecipitated with MT1-F

Question: What about the “activation of proMMP-2 by cells expressing the mutant” value (MT1-MMP [2]) of the same substance?
Answer: cannot activate proMMP-2
